From PMC7024211, “Antifouling Napyradiomycins from Marine-Derived Actinomycetes Streptomyces aculeolatus” (Marine Drugs, 2020)

Columns and labels:
M. luteus [1] = experiment: Bacterial growth inhibition assay (OD600nm); type: cell-based, Micrococcus luteus
Source text: (§1) Five marine bacterial species were used as models to assess antimicrofouling activity. The biofilm-forming marine bacteria Marinobacter hydrocarbonoclasticus DSM 8798 (ATCC 49840), Cobetia marina DSM 4741, Phaeobacter inhibens DSM 17,395, and Pseusooceanicola batsensis DSM 15,984 were obtained from DSMZ (Leibniz Institute DSMZ—German collection of Microorganisms and Cell Cultures) and Micrococcus luteus. Cultures were routinely grown in liquid marine broth (Carl Roth GmbH, Karlsruhe, Germany) with agitation (180 rpm) or on agar-supplemented marine broth, at 28 °C (M. hydrocarbonoclasticus and C. marina) or 30 °C (P. inhibens and P. batsensis). M. luteus was maintained in Brain Heart Infusion broth (BHI, Becton Dickinson, GmbH, Heidelberg, Germany) with agitation (180 rpm) or on agar-supplemented BHI, at 37 °C.
(§2) The antibacterial activity of the napyradiomycins (1–12) was assessed in 96-well polystyrene flat bottom microplates (Nunclon Delta Surface, Thermo Scientific, Roskilde, Denmark) following previously reported procedures. […] After 24 h (M. hydrocarbonoclasticus, C. marina) or 48 h (P. batsensis, P. inhibens, M. luteus) incubation, the OD600nm was determined (Molecular Devices, Spectra Max 190). […] The percentage of growth inhibition was calculated as the amount of growth relative to that of the bacterial species without added compounds (with the same amount of DMSO added). CuSO4 (5 μM), a potent antifouling agent used in antifouling paints, was used as reference.
(§3) All assays were performed in triplicate, and results are representative of the average and standard error of the mean (SEM). Statistical analysis was performed in GraphPad Prism 8.0.2 (San Diego, CA, USA), using one-way ANOVA followed by a Dunnett’s multiple comparisons test against the control (species grown with the same amount of DMSO added).

M. hydrocarbonoclasticus = experiment: Biofilm inhibition assay (crystal violet); type: cell-based, Marinobacter hydrocarbonoclasticus; conditions: 31.25 µg/mL
Procedure: (§4) In a 96-well plate, biofilm grown cultures of M. hydrocarbonoclasticus and C. marina were incubated with napyradiomycins (1–12) at a concentration of 31.25 µg/mL. After discarding the media, biofilm inhibition was determined from OD600 measurements of crystal violet stained cells resuspended from the plate bottom with acetic acid.
as §1
(§5) The antibiofilm activity of napyradiomycins (1–12) against the five marine bacterial species was assessed in 96-well polystyrene flat bottom microplates (Nunclon Delta Surface, Thermo Scientific, Roskilde, Denmark) as previously reported. For initial screening, bacterial overnight cultures were diluted to an optical density (OD600nm) value of 0.2 and incubated statically at 28 °C (M. hydrocarbonoclasticus, C. marina), 30 °C (P. inhibens, P. batsensis) or 37 °C (M. luteus) in the 96-well microplate in the presence or absence of 31.25 µg/mL of napyradiomycins, solubilized in DMSO. After 24 h (M. hydrocarbonoclasticus, C. marina) or 48 h (P. batsensis, P. inhibens, M. luteus) incubation, the OD600nm was determined. The planktonic cells and media were discarded, and the wells were washed twice with deionized water. The biofilm was fixed for 1 h at 60 °C and stained with crystal violet 0.06% for 10 min. The dye was discarded, and the wells were again washed twice with deionized water. The stained biofilm was solubilized with 30% acetic acid and the OD600nm was determined. […] The percentage of biofilm inhibition was calculated as the amount of biofilm relative to that of the bacterial species without added compounds (with the same amount of DMSO added). CuSO4 (5 μM), a potent antifouling agent used in antifouling paints, was used as reference.
as §3, with “8.0.2,” for “8.0.2 (San Diego, CA, USA),”

C. marina [2] = experiment: Bacterial growth inhibition assay (OD600nm); type: cell-based, Cobetia marina
Source text: as §1, §2, §3

M. luteus [3] = experiment: Biofilm inhibition assay (crystal violet); type: cell-based, Micrococcus luteus
Procedure: as §4, §1, §5
as §3, with “8.0.2,” for “8.0.2 (San Diego, CA, USA),”

C. marina [4] = experiment: Biofilm inhibition assay (crystal violet); type: cell-based, Cobetia marina; conditions: 31.25 µg/mL
Procedure: as §4, §1, §5
as §3, with “8.0.2,” for “8.0.2 (San Diego, CA, USA),”

P. batsensis [5] = experiment: Biofilm inhibition assay (crystal violet); type: cell-based, Pseudooceanicola batsensis; conditions: Pseudooceanicola batsensis
Procedure: as §4, §1, §5
as §3, with “8.0.2,” for “8.0.2 (San Diego, CA, USA),”

P. inhibens = experiment: Biofilm inhibition assay (crystal violet); type: cell-based, Phaeobacter inhibens; conditions: 31.25 µg/mL
Procedure: as §4, §1, §5
All assays were performed in triplicate, and results are representative of the average and standard error of the mean (SEM). […]

P. batsensis [6] = experiment: Bacterial growth inhibition assay (OD600nm); type: cell-based, Pseudooceanicola batsensis
Procedure: As a first screening approach, liquid cultures of M. hydrocarbonoclasticus, and C. marina in a 96-well format were analyzed for bacterial growth inhibition by percent decrease in OD600 after incubation with napyradiomycins (1–12) at 31.25 µg/mL.
as §1
The antibacterial activity of the napyradiomycins (1–12) was assessed in 96-well polystyrene flat bottom microplates (Nunclon Delta Surface, Thermo Scientific, Roskilde, Denmark) following previously reported procedures. For initial screening, bacterial overnight cultures were diluted to an optical density (OD600nm) of 0.2 and incubated statically at 28 °C (M. hydrocarbonoclasticus, C. marina), 30 °C (P. inhibens, P. batsensis) or 37 °C (M. luteus) in a 96-well microplate in the presence or absence of 31.25 µg/mL of the napyradiomycins, solubilized in DMSO. After 24 h (M. hydrocarbonoclasticus, C. marina) or 48 h (P. batsensis, P. inhibens, M. luteus) incubation, the OD600nm was determined (Molecular Devices, Spectra Max 190). […] The percentage of growth inhibition was calculated as the amount of growth relative to that of the bacterial species without added compounds (with the same amount of DMSO added). CuSO4 (5 μM), a potent antifouling agent used in antifouling paints, was used as reference.
as §3

`CC(C)=CCCC(C)=CCC12OC(C)(C)C(Cl)CC1(Cl)C(=O)c1c(O)cc(O)cc1C2=O` (centres unmarked) [Napyradiomycin 1, napyradiomycin A1] was tested, and the “% growth inhibition M. luteus” value (M. luteus [1]; 3.91 µg/mL) was 93.6 ± 1.1%, the inhibition at 0.98 µg/mL (M. luteus [1]; Micrococcus luteus, 0.98 µg/mL) was 42.9 ± 0.4% and the inhibition at 1.95 µg/mL (M. luteus [1]; Micrococcus luteus, 1.95 µg/mL) was 69.8 ± 0.5%. For the same compound, the inhibition at 3.91 µg/mL (M. luteus [1]; Micrococcus luteus, 3.91 µg/mL) was greater than 90%, the inhibition at 7.81 µg/mL (M. luteus [1]; Micrococcus luteus, 7.81 µg/mL) was 96 ± 0.3% and the inhibition at 15.6 µg/mL (M. luteus [1]; Micrococcus luteus, 15.60 µg/mL) was 96.5 ± 0.2%. The inhibition at 31.25 µg/mL (M. luteus [1]; Micrococcus luteus, 31.25 µg/mL) was 96.1 ± 0.5%, the “% Biofilm Inhibition ± SEM M. hydrocarbonoclasticus” value (M. hydrocarbonoclasticus) was “N.I” and the “% growth inhibition C. marina” value (C. marina [2]; 0.98 µg/mL) was “N.I”. For the same compound, the “% growth inhibition C. marina” value (C. marina [2]; 1.95 µg/mL) was “N.I”, the inhibition at 3.91 µg/mL (C. marina [2]; Cobetia marina, 3.91 µg/mL) was 5.5 ± 0.8% and the inhibition at 7.81 µg/mL (C. marina [2]; Cobetia marina, 7.81 µg/mL) was 18.2 ± 0.7%. It also gave an inhibition at 15.6 µg/mL (C. marina [2]; Cobetia marina, 15.60 µg/mL) of 15.3 ± 0.7%, an inhibition at 31.25 µg/mL (C. marina [2]; Cobetia marina, 31.25 µg/mL) of 19.8 ± 0.6% and an inhibition at 0.98 µg/mL (M. luteus [3]; Micrococcus luteus, 0.98 µg/mL, read-out: % inhibition of biofilm formation M. luteus) of 59 ± 7.4%. The inhibition at 1.95 µg/mL (M. luteus [3]; Micrococcus luteus, 1.95 µg/mL, read-out: % inhibition of biofilm formation M. luteus) was 90.3 ± 3.8%, the inhibition at 3.91 µg/mL (M. luteus [3]; Micrococcus luteus, 3.91 µg/mL, read-out: % inhibition of biofilm formation M. luteus) was 95.8 ± 2.9% and the inhibition at 7.81 µg/mL (M. luteus [3]; Micrococcus luteus, 7.81 µg/mL, read-out: % inhibition of biofilm formation M. luteus) was 96.7 ± 0.5%. The inhibition at 15.6 µg/mL (M. luteus [3]; Micrococcus luteus, 15.6 µg/mL, read-out: % inhibition of biofilm formation M. luteus) was 95.4 ± 0.9%, the inhibition at 31.25 µg/mL (M. luteus [3]; Micrococcus luteus, 31.25 µg/mL, read-out: % Biofilm Inhibition ± SEM M. luteus) was 88.6 ± 2.9% and the “% inhibition of biofilm formation M. luteus” value (M. luteus [3]; concentrations higher than 1.95 µg/mL) was greater than 90%. For the same compound, the “% Biofilm Inhibition ± SEM C. marina” value (C. marina [4]) was “N.I”, the inhibition at 0.98 µg/mL (P. batsensis [5]; 0.98 µg/mL, read-out: % inhibition of biofilm formation P. batsensis) was 4.3 ± 4.3% and the inhibition at 1.95 µg/mL (P. batsensis [5]; 1.95 µg/mL, read-out: % inhibition of biofilm formation P. batsensis) was 17.7 ± 0.8%. For the same compound, the inhibition at 3.91 µg/mL (P. batsensis [5]; 3.91 µg/mL, read-out: % inhibition of biofilm formation P. batsensis) was 38.1 ± 0.6%, the inhibition at 7.81 µg/mL (P. batsensis [5]; 7.81 µg/mL, read-out: % inhibition of biofilm formation P. batsensis) was 28.4 ± 2.8% and the inhibition at 15.6 µg/mL (P. batsensis [5]; 15.6 µg/mL, read-out: % inhibition of biofilm formation P. batsensis) was 86.9 ± 1%. The inhibition at 31.25 µg/mL (P. batsensis [5]; 31.25 µg/mL, read-out: % Biofilm Inhibition ± SEM P. batsensis) was 87.2 ± 0.1%, the “% Biofilm Inhibition ± SEM P. inhibens” value (P. inhibens) was “N.I” and the “% growth inhibition P. batsensis” value (P. batsensis [6]; 0.98 µg/mL) was “N.I”. The “% growth inhibition P. batsensis” value (P. batsensis [6]; 1.95 µg/mL) was “N.I”, the “% growth inhibition P. batsensis” value (P. batsensis [6]; 3.91 µg/mL) was “N.I” and the inhibition at 7.81 µg/mL (P. batsensis [6]; Pseudooceanicola batsensis, 7.81 µg/mL) was 47.4 ± 0.3%. It also gave an inhibition at 15.6 µg/mL (P. batsensis [6]; Pseudooceanicola batsensis, 15.60 µg/mL) of 62.7 ± 0.6% and an inhibition at 31.25 µg/mL (P. batsensis [6]; Pseudooceanicola batsensis, 31.25 µg/mL) of 53.9 ± 0.3%.
